According to BindingDB's records for doi:10.1021/jm049651m (Uppsala University, 2004):
Bridge positions count the residues as written; N and C are the ends. Square brackets hold non-standard residues; d marks the D form. Peptide text beside a SMILES is read from it. hCys = N[C@@H](CCS)C(=O)O

Biological target: Type-2 angiotensin II receptor (Sus scrofa)
Experiment: Displacement of [125I]-Ang II from pig uterus myometrium angiotensin II type 2 (AT2) receptor

Ki: 2.1 nM
SMILES: NC(N)=NCCC[C@H](NC(=O)[C@@H](N)CC(=O)O)C(=O)N[C@H]1CCSSCC[C@@H](C(=O)N[C@@H](Cc2c[nH]cn2)C(=O)N2CCC[C@H]2C(=O)N[C@@H](Cc2ccccc2)C(=O)O)NC(=O)[C@H](Cc2ccc(O)cc2)NC1=O [c[Hcy3,5]Ang II] (H-DR[hCys]Y[hCys]HPF-OH; disulfide 3-5)
